Measured values from patent US11000485B2, “Substituted hydroxystilbenes as AhR and Nrf2 modulators and their therapeutic applications” (Resolvex Pharmaceuticals Inc., priority 2017, dated 2021).

How the values were obtained:
A549 cells = test: Cell viability (MTS); assay type: cell-based; conditions: 48 hours
Method: (§1) Cells were cultured in RPMI-1640 containing 10% FBS (Jurkat and THP-1) or DMEM containing 10% FBS (A549 and MDA-MB-435). On Day 1, 1-5×10^4 cells per well in 100 μL of the cell culture medium containing 0.5% FBS were seeded into a 96-well flat bottom plate. On Day 2, the test compounds were added to the culture at different concentrations in triplicates. The controls include triplicates of no compound treatment and cell culture medium without cells. The cells were incubated at 5% CO2, 37° C. for 48 hours. On Day 4, MTS reagent was added to each well and incubated at 37° C. for 4 hours. The absorbance was read at 490 nm. The percentage of inhibition was calculated using the formula: [1-(experiment reading-background reading)/(negative control reading-background reading)]×100.

Jurkat cells = test: Cell viability (MTS); assay type: cell-based; conditions: 48 hours
Method: as §1

MDA-MB-435 cells = test: Cell viability (MTS); assay type: cell-based; conditions: 48 hours
Method: as §1

THP1 cells = test: Cell viability (MTS); assay type: cell-based; conditions: 48 hours
Method: as §1

[1] = target: T1, recombinant human PDE4B1 enzyme (Homo sapiens, UniProt Q07343); test: PDE4B1 radiometric enzyme assay; assay type: biochemical; conditions: 1 μM cAMP
T1 construct: host or cells: baculoviral system
T1 sequence (Q07343 whole entry): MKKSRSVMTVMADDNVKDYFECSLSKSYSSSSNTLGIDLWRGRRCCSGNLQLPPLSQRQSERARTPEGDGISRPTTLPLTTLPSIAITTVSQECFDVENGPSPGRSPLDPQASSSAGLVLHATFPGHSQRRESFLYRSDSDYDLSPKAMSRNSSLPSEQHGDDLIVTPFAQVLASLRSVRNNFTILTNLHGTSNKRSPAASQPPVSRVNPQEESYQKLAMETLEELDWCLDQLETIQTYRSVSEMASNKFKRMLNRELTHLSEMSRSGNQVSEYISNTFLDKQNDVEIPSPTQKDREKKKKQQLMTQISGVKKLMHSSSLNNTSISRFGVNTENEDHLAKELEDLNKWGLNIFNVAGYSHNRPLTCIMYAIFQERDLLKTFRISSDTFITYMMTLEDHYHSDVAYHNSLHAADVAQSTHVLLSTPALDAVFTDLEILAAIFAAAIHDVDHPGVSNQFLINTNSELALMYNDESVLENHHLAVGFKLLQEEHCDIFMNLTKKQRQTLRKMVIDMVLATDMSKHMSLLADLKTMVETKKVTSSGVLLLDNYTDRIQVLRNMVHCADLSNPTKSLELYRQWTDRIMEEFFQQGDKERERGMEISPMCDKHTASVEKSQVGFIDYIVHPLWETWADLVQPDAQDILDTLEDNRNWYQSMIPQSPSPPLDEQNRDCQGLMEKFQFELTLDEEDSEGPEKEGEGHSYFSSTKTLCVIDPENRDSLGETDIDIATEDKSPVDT
Method: Assays were performed using recombinant human PDE4B1 enzyme expressed in a baculoviral system. […] The reactions were performed at 1 μM of cAMP. The test articles were each tested at 0.2 μM and 20 μM in triplicates.

Row | SMILES | IC50 (A549 cells) [nM] | IC50 (Jurkat cells) [nM] | IC50 (MDA-MB-435 cells) [nM] | IC50 (THP1 cells) [nM] | Inhibitory activity on PDE4B1 enzyme ([1]; 0.2 μM compound) | Inhibitory activity on PDE4B1 enzyme ([1]; 20 μM compound)
1 | Oc1cc(/C=C/c2ccc(F)cc2)ccc1C1CC1 [Compound 12] | 32000 | 1650 | 1620 | 15400 | + (“+” is 15-30% inhibition) | +++ (“+++” is greater than 50% inhibition)
2 | N#Cc1ccc(/C=C/c2ccc(C3CC3)c(O)c2)cc1C#N [Compound 18] |  | 3280 | 1270 | 2400 |  | 
